In patent US20240400542A1 (University of Virginia Patent Foundation, priority 2021, published 2024):

Legend:
Jurkat proteomes = assay: In vitro competition of KY-26 labeling, gel-based chemical proteomics; format: binding, human; conditions: pretreatment 30 min, 37° C.: ATP 10-0.5 mM, KY-424 1 and 0.5 mM, then KY-26 5 μM
Description: (§1) Briefly, Jurkat cells were grown to 80% confluency and treated with either DMSO or probe at the designated final concentration (KY-26 or XO44, 1,000× stock in serum-free media (SFM)) and incubated at 37° C. with 5% CO2 for 30 min. Cells were harvested and lysed in PBS buffer containing EDTA-free protease inhibitors. Addition of the rhodamine fluorescent tag was accomplished by CuAAC and fluorescently labeled proteins visualized by SDS-PAGE and in-gel fluorescence scanning. For KY-26 and XO44 live cell treated samples, 50 μL aliquots of proteome were used for gel experiments. […]
(§2) Cell pellets were lysed in PBS buffer (PBS+a protease inhibitor (sold under the tradename PIERCE™, Thermo Fisher Scientific, Waltham, Massachusetts, United States of America), EDTA free) by sonicating 3 times for 1 second×20% amplitude. […] Protein concentrations were measured using the Bio-Rad DC protein assay (Bio-Rad Laboratories, Hercules, California, United States of America), and fractions were diluted to a concentration of 1 mg/mL in PBS. […] 30 μL of each sample were separated by SDS-PAGE and analyzed by in-gel fluorescence scanning for the rhodamine azide tag. […]
In addition to solution reactivity, activity of KY-26 and XO44 in proteomes was compared using gel-based chemical proteomics. […] Probe-modified proteins were visualized by SDS-PAGE and in-gel fluorescence scanning. […]

[1] = HPLC solution reactivity of probe with n-butylamine (lysine mimetic); format: physicochemical; conditions: TMG base, 0° C., KY-26 compared with p-cresol
Description: (§3) Briefly, reaction progress of KY-26 or XO44 with p-cresol or n-butylamine (16.5 μmol, 3.3 eq.) in the presence of TMG base (1,1,3,3-tetramethylguanidine, 1.1 eq) was evaluated by monitoring probe consumption and quantified based on the signal from the caffeine standard using HPLC. Synthetic peptide reactions were conducted by mixing the peptide (Ac-RLNERHYGGLTGLNK-NH2, 50 nmol, 1.0 eq.) with 1.1 eq of TMG. KY-26 (550 nmol, 11.0 eq) was added to the mixture and the reaction was kept at 37° C. until the reaction achieved at least 50% conversion.
(§4) More particularly, an acetonitrile solution of p-cresol or n-butylamine (16.5 μmol, 3.3 eq.) was mixed with 1.1 eq of TMG. KY-26 or XO44 in ACN:DMF=6:4 (5 μmol, 1.0 eq.) was added to the mixture and the reaction was kept at 0° C. The final molarity for KY-26 or XO44 is 10 mM. Aliquots (50 μl) of the reaction were taken and quenched by adding acetic acid (0.5 M final, 5.0 μmol) and caffeine standard (0.05 M final, 0.5 μmol) at ten-minute intervals for 1.5 hrs. 1.0 μL sample was injected and analyzed by reverse-phase HPLC with mobile phases A (H2O, 0.1% AcOH) and B (CH3CN, 0.1% AcOH) with a gradient of 0-15-85-100% B in 0-0.5-6.5-7 min. UV measurements taken at 254 nm. Reaction progress was evaluated by monitoring KY-26 or XO44 consumption and quantified based on the signal from the caffeine standard. […]

[2] = HPLC solution reactivity of probe with p-cresol (tyrosine mimetic); format: physicochemical; conditions: UV 254 nm, TMG base, 0° C., longest time point tested 90 min
Description: as §3, §4

Jurkat cells = assay: Gel-based chemical proteomics, live cell probe labeling; design: species or system human
Description: as §1, with “experiments. For KY-26 lysate labeling, 49 μL aliquots of cell lysate were used for each dose and time point before adding 1 μL of 50× KY-26 stock (5 μM final) and incubated for 30 min at 37° C.” for “experiments.”
as §2

recombinant human CDK2 = recombinant human CDK2 (Homo sapiens, UniProt P24941); assay: Competition of KY-26 ABP labeling of recombinant CDK2 in HEK293T lysates; format: binding; conditions: then 2.5 μM KY-26 30 minutes
Description: Gateway cloning was performed to generate recombinant human CDK2 (containing a FLAG tag) overexpression plasmid (see FIG. 11) and recombinant human CDK2 was overexpressed in HEK293T mammalian cells. KY-26 and TH211 activity-based probe (ABP) labeling of the recombinant human CDK2 was performed. Briefly, recombinant human CDK2 overexpressed HEK293T lysates were incubated […] with various concentrations of TH211 (a broad-spectrum kinase ABP) or KY-26 (a targeted covalent kinase ABP) for 30- and 60-minutes. Western blots confirmed CDK2 overexpression with rabbit anti-FLAG and goat anti-rabbit 650 antibodies for samples incubated with KY-26 or TH211 probes.
Recombinant human CDK2 overexpressed HEK293T lysates were incubated with KY-424 (1 μM-10 μM) or free ATP (1 μM-10 μM) for 30 minutes at 37° C. Subsequently, samples were incubated with 2.5 μM KY-26 for 30 minutes at 37° C. […] Based on this finding, the study was performed using additional concentrations of KY-424 ([…]) or free ATP (400 μM-10 mM) for 30 minutes at 37° C. Again, samples were then incubated with 2.5 μM KY-26 for 30 minutes at 37° C. […] Lysates from 24- (KY-424 competition) and 48-hour transfections (ATP competition) were used.

Row | reaction of probe with n-butylamine [1] | time to near-complete depletion of probe in reaction with p-cresol [2] | blockade of KY-26 labeling of recombinant human CDK2 (recombinant human CDK2; 40 nM KY-424, 30 minutes at 37° C., HEK293T lysates) | competition of KY-26 ABP labeling of recombinant human CDK2 (recombinant human CDK2; KY-424 1 μM-10 μM, 30 minutes at 37° C.) | Compound | blockade of KY-26 labeling of proteomes (Jurkat proteomes) | probe labeling in live cells, dependence on concentration and time (Jurkat cells; 2.5-25 μM, 15-120 min) | proteome reactivity, in-gel fluorescence intensity compared with XO44 (Jurkat cells; live Jurkat cells, 5 μM, 30 min, 37° C.)
1 | – | – | – | – | Nc1ncnc2c1ncn2[C@@H]1O[C@H](COP(=O)(O)OP(=O)(O)OP(=O)(O)O)[C@@H](O)[C@H]1O [ATP, adenosine triphosphate, reference compound] | concentration-dependent blockade | – | –
2 | reduced activity | ≤ 20 min | – | – | C#CCNC(=O)c1cc(Nc2cc(C3CC3)[nH]n2)nc(N2CCN(C(=O)c3ccc(S(=O)(=O)n4cnc(-c5ccccc5)n4)cc3)CC2)n1 [KY-26, 6-((5-cyclopropyl-1H-pyrazol-3-yl)amino)-2-(4-(4-((3-phenyl-1H-1,2,4-triazol-1-yl)sulfonyl)benzoyl)piperazin-1-yl)-N-(prop-2-yn-1-yl)pyrimidine-4-carboxamide] | – | concentration- and time-dependent probe labeling | substantially increased reactivity
3 | – | – | approximately 50% | potently competes | CCCNC(=O)c1cc(Nc2cc(C3CC3)[nH]n2)nc(N2CCN(C(=O)c3ccc(S(=O)(=O)n4cnc(-c5ccccc5)n4)cc3)CC2)n1 [KY-424, 6-((5-cyclopropyl-1H-pyrazol-3-yl)amino)-2-(4-(4-((3-phenyl-1H-1,2,4-triazol-1-yl)sulfonyl)benzoyl)piperazin-1-yl)-N-propylpyrimidine-4-carboxamide] | concentration-dependent blockade | – | –
